Reference: patent US12599672B2, “KRAS proteolysis targeting chimeras” (PAQ Therapeutics Inc., priority 2023, dated 2026)

Columns and labels:
Type in all cases: cell-based
KRAS G12D = target: T1, KRAS G12D (Homo sapiens, UniProt P01116, G12D); assay: KRAS G12D HiBit assay; settings: AsPc-1-KRAS (G12D)-HiBit-KI cell, compound treatment for 24 hours; for DC50: absolute DC50
T1 construct: AsPc-1-KRAS (G12D)-HiBit-KI cell (Pharmaron); host or cells: AsPc-1-KRAS (G12D)-HiBit-KI cells (HiBiT knock-in at the endogenous KRAS locus)
Procedure, shortened: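 Cells were treated for 24 h with compounds in a 3-fold, 10-point dilution series from a 0.3 mM DMSO stock, then equilibrated 15 min at room temperature. KRAS G12D HiBiT levels were read by luminescence after lytic Nano-Glo HiBiT reagent with LgBiT; inhibition calculated relative to 0.1% DMSO high control.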

KRAS G12V = target: T2, KRAS G12V (Homo sapiens, UniProt P01116, G12V); assay: KRAS G12V HiBit assay; settings: SW620-KRAS (G12V)-HiBit-KI cells, compound treatment for 24 hours
T2 construct: SW620-KRAS (G12V)-HiBit-KI cell (Pharmaron); host or cells: SW620-KRAS (G12V)-HiBit-KI cells (HiBiT knock-in at the endogenous KRAS locus)
Procedure, shortened: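 HiBiT-tagged KRAS G12V cells treated 24 h with compound in a 3-fold, 10-point series (0.3 mM DMSO stock); lytic HiBiT reagent with LgBiT added after 15 min room-temperature equilibration. Degradation calculated against 0.1% DMSO high control.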

KRAS = target: T3, KRAS (Homo sapiens, UniProt P01116); assay: KRASamp MSD assay; settings: KE39 (KRAS amplified) cells, treated with test compounds for 24 hr, MSD readout of KRAS degradation
T3 construct: endogenous in cells; host or cells: KE39 (KRAS amplified) cells
Procedure, shortened: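 KRAS-amplified KE39 cells treated with compound for 24 hr, then lysed in RIPA buffer with protease/phosphatase inhibitors. KRAS protein measured by MSD sandwich immunoassay against a recombinant WT KRAS standard curve; DC50 derived from curve fitting of degradation.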

[1] = numeric bounds given in place of class symbols

T3 sequence (P01116 1-188 isoform P01116-2): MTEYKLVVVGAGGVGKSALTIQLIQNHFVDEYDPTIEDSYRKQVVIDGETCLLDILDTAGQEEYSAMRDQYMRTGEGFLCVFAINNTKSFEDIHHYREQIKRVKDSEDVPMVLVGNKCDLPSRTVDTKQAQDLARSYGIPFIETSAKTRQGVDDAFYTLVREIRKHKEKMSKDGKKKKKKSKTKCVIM
T2 sequence (P01116 1-188 isoform P01116-2 G12V): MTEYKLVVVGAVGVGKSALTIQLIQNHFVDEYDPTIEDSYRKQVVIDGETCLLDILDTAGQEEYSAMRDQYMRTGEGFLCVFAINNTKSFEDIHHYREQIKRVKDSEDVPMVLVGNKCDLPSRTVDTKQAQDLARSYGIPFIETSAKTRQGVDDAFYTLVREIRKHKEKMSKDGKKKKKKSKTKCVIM
T1 sequence (P01116 1-188 isoform P01116-2 G12D): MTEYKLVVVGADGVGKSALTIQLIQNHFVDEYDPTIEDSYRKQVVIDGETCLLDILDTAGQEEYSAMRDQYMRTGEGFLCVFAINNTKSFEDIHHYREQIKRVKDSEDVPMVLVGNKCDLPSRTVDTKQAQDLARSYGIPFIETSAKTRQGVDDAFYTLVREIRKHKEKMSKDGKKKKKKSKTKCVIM

Row | Compound | DC50 (KRAS G12D; class symbols) [nM] | DC50 (KRAS G12V; class symbols) [nM] | DC50 (KRAS) [nM] | DC50 (KRAS G12D; [1]) [nM] | DC50 (KRAS G12V; numeric bounds) [nM] | Dmax (KRAS G12D; class symbols) [%]
1 | C#Cc1c(F)ccc2cccc(-c3ncc4c(N5CCC[C@@](C)(O)C5)nc(OCC5(CN6CC7(C6)CN(c6ccc8c(c6)n(C)c(=O)n8C6CCC(=O)NC6=O)C7)CC5)nc4c3F)c12 (some centres unmarked) [Compound 31] | > 300 | > 100 | ≥ 10 | – | – | –
2 | CCc1c(F)ccc2cc(O)cc(-c3ncc4c(N5CCC[C@@](C)(O)C5)nc(OC[C@@]56CCCN5[C@@H](COC(=O)N5CCC(COc7ccc8c(c7)n(C)c(=O)n8C7CCC(=O)NC7=O)CC5)CC6)nc4c3F)c12 (stereo partly drawn) [Compound 314, ((3R,7aS)-7a-(((7-(8-ethyl-7-fluoro-3-hydroxynaphthalen-1-yl)-8-fluoro-4-((R)-3-hydroxy-3-methylpiperidin-1-yl)pyrido[4,3-d]pyrimidin-2-yl)oxy)methyl)hexahydro-1H-pyrrolizin-3-yl)methyl 4-(((1-(2,6-dioxopiperidin-3-yl)-3-methyl-2-oxo-2,3-dihydro-1H-benzo[d]imidazol-5-yl)oxy)methyl)piperidine-1-carboxylate] | – | > 100 | ≥ 10 | > 100 | – | –
3 | CCc1c(F)ccc2cc(O)cc(-c3ncc4c(N5CC[C@@H](O)C5)nc(OC[C@@]56CCCN5[C@H](COC(=O)N5CCC7(CC5)CC(N5CCC(c8ccc9c(c8)n(C)c(=O)n9C8CCC(=O)NC8=O)CC5)C7)CC6)nc4c3F)c12 (stereo partly drawn) [Compound 350, ((3S,7aS)-7a-(((7-(8-ethyl-7-fluoro-3-hydroxynaphthalen-1-yl)-8-fluoro-4-((R)-3-hydroxypyrrolidin-1-yl)pyrido[4,3-d]pyrimidin-2-yl)oxy)methyl)hexahydro-1H-pyrrolizin-3-yl)methyl 2-(4-(1-(2,6-dioxopiperidin-3-yl)-3-methyl-2-oxo-2,3-dihydro-1H-benzo[d]imidazol-5-yl)piperidin-1-yl)-7-azaspiro[3.5]nonane-7-carboxylate] | < 100 | < 10 | 1 to 10 | – | – | –
4 | CCc1c(F)ccc2cc(O)cc(-c3ncc4c(N5CCC[C@@](C)(O)C5)nc(OC[C@]56CCCN5[C@H](COC(=O)NC5CCCN(c7cccc8c7n(C)c(=O)n8C7CCC(=O)NC7=O)C5)CC6)nc4c3F)c12 (stereo partly drawn) [Compound 312, ((3S,7aR)-7a-(((7-(8-ethyl-7-fluoro-3-hydroxynaphthalen-1-yl)-8-fluoro-4-((R)-3-hydroxy-3-methylpiperidin-1-yl)pyrido[4,3-d]pyrimidin-2-yl)oxy)methyl)hexahydro-1H-pyrrolizin-3-yl)methyl (1-(1-(2,6-dioxopiperidin-3-yl)-3-methyl-2-oxo-2,3-dihydro-1H-benzo[d]imidazol-4-yl)piperidin-3-yl)carbamate] | – | 10 to 100 | ≥ 10 | > 100 | – | –
5 | CCc1c(F)ccc2cc(O)cc(-c3ncc4c(N5CCC[C@@](C)(O)C5)nc(OC[C@@]56CCCN5[C@H](COC(=O)N5CCC(CN7CCC(c8ccc9c(C%10CCC(=O)NC%10=O)nn(C)c9c8F)CC7)CC5)CC6)nc4c3F)c12 (stereo partly drawn) [Compound 100, [(3S,8S)-8-[[7-(8-ethyl-7-fluoro-3-hydroxy-1-naphthyl)-8-fluoro-4-[(3R)-3-hydroxy-3-methyl-1-piperidyl]pyrido[4,3-d]pyrimidin-2-yl]oxymethyl]-1,2,3,5,6,7-hexahydropyrrolizin-3-yl]methyl 4-[[4-[3-(2,6-dioxo-3-piperidyl)-7-fluoro-1-methyl-indazol-6-yl]-1-piperidyl]methyl]piperidine-1-carboxylate] | < 100 | < 10 | < 1 | – | – | > 50
6 | CCc1c(F)ccc2cc(O)cc(-c3ncc4c(N5CCC[C@@](C)(O)C5)nc(OC[C@@]56CCCN5[C@H](COC(=O)N5CCC(OCCCc7cccc8c7n(C)c(=O)n8C7CCC(=O)NC7=O)CC5)CC6)nc4c3F)c12 (stereo partly drawn) [Compound 2, [(3S,8S)-8-[[7-(8-Ethyl-7-fluoro-3-hydroxy-1-naphthyl)-8-fluoro-4-[(3R)-3-hydroxy-3-methyl-1-piperidyl]pyrido[4,3-d]pyrimidin-2-yl]oxymethyl]-1,2,3,5,6,7-hexahydropyrrolizin-3-yl]methyl4-[3-[1-(2,6-dioxo-3-piperidyl)-3-methyl-2-oxo-benzimidazol-4-yl]propoxy]piperidine-1-carboxylate] | < 100 | < 10 | < 1 | – | – | > 50

Other lines, results leading:

Row | DC50 (KRAS G12D; class symbols) [nM] | DC50 (KRAS G12V; class symbols) [nM] | DC50 (KRAS) [nM] | DC50 (KRAS G12D; [1]) [nM] | DC50 (KRAS G12V; numeric bounds) [nM] | Dmax (KRAS G12D; class symbols) [%] | Compound
7 | < 100 | 10 to 100 | ≥ 10 | – | – | – | CCc1c(F)ccc2cc(O)cc(-c3ncc4c(N5CCC[C@@](C)(O)C5)nc(OC[C@@]56CCCN5[C@H](CNC(=O)c5ccc(CN7CCC(c8ccc9c(c8)n(C)c(=O)n9C8CCC(=O)NC8=O)CC7)cc5)CC6)nc4c3F)c12 (stereo partly drawn) [Compound 484, 4-((4-(1-(2,6-dioxopiperidin-3-yl)-3-methyl-2-oxo-2,3-dihydro-1H-benzo[d]imidazol-5-yl)piperidin-1-yl)methyl)-N-(((3S,7aS)-7a-(((7-(8-ethyl-7-fluoro-3-hydroxynaphthalen-1-yl)-8-fluoro-4-((R)-3-hydroxy-3-methylpiperidin-1-yl)pyrido[4,3-d]pyrimidin-2-yl)oxy)methyl)hexahydro-1H-pyrrolizin-3-yl)methyl)benzamide]
8 | < 100 | < 10 | < 1 | – | – | – | CCc1c(F)ccc2cc(O)cc(-c3ncc4c(N5CCC[C@@](C)(O)C5)nc(OC[C@@]56CCCN5[C@H](COC(=O)N5CC7(CCC(CN8CCC(c9ccc%10c(c9)n(C)c(=O)n%10C9CCC(=O)NC9=O)CC8)CC7)C5)CC6)nc4c3F)c12 (stereo partly drawn) [Compound 448, ((3S,7aS)-7a-(((7-(8-ethyl-7-fluoro-3-hydroxynaphthalen-1-yl)-8-fluoro-4-((R)-3-hydroxy-3-methylpiperidin-1-yl)pyrido[4,3-d]pyrimidin-2-yl)oxy)methyl)hexahydro-1H-pyrrolizin-3-yl)methyl 7-((4-(1-(2,6-dioxopiperidin-3-yl)-3-methyl-2-oxo-2,3-dihydro-1H-benzo[d]imidazol-5-yl)piperidin-1-yl)methyl)-2-azaspiro[3.5]nonane-2-carboxylate]
9 | < 100 | – | ≥ 10 | – | > 91.5 | – | CCc1c(F)ccc2cc(O)cc(-c3ncc4c(N5CCC[C@@](C)(O)C5)nc(OC[C@@]56CCCN5C(CN5CCC(Cc7ccc8c(c7)n(C)c(=O)n8C7CCC(=O)NC7=O)CC5)CC6)nc4c3F)c12 (stereo partly drawn) [Compound 383, 3-(5-((1-(((7aS)-7a-(((7-(8-ethyl-7-fluoro-3-hydroxynaphthalen-1-yl)-8-fluoro-4-((R)-3-hydroxy-3-methylpiperidin-1-yl)pyrido[4,3-d]pyrimidin-2-yl)oxy)methyl)hexahydro-1H-pyrrolizin-3-yl)methyl)piperidin-4-yl)methyl)-3-methyl-2-oxo-2,3-dihydro-1H-benzo[d]imidazol-1-yl)piperidine-2,6-dione]
10 | < 100 | < 10 | < 1 | – | – | – | CCc1c(F)ccc2cc(O)cc(-c3ncc4c(N5CCC[C@@](C)(O)C5)nc(OC[C@@]56CCCN5[C@H](COC(=O)N5CCC7(CCC(CN8CCC(c9ccc%10c(c9)n(C)c(=O)n%10C9CCC(=O)NC9=O)CC8)CC7)CC5)CC6)nc4c3F)c12 (stereo partly drawn) [Compound 466, ((3S,7aS)-7a-(((7-(8-ethyl-7-fluoro-3-hydroxynaphthalen-1-yl)-8-fluoro-4-((R)-3-hydroxy-3-methylpiperidin-1-yl)pyrido[4,3-d]pyrimidin-2-yl)oxy)methyl)hexahydro-1H-pyrrolizin-3-yl)methyl 9-((4-(1-(2,6-dioxopiperidin-3-yl)-3-methyl-2-oxo-2,3-dihydro-1H-benzo[d]imidazol-5-yl)piperidin-1-yl)methyl)-3-azaspiro[5.5]undecane-3-carboxylate]
